According to ChEMBL document CHEMBL5143551, “Synthesis of sp3-rich chiral bicyclo[3.3.1]nonanes for chemical space expansion and study of biological activities” (Bioorg Med Chem, 2022):
Calls of active or inactive are those of the source. No cut-off for these calls is given here.

Legend:
HeLa [1] = assay: Growth inhibition of human HeLa cells by MTT assay; assay type: functional, cell-based
[2] = Inhibition of HIF-1 transcriptional activity in human HeLa cells transfected with hypoxia response element-dependent luciferase reporter gene under hypoxic conditions; assay type: cell-based
HeLa [3] = assay: Inhibition of HIF-1 transcriptional signaling in human HeLa cells assessed as reduction in CA9 protein expression at 100 uM under hypoxia conditions by Western blot analysis; assay type: cell-based
HeLa [4] = assay: Inhibition of HIF-1-alpha protein expression in human HeLa cells at 100 uM by Western blot analysis; assay type: functional, cell-based
HeLa [5] = assay: Inhibition of HIF-1-alpha mRNA expression in human HeLa cells under hypoxia conditions at 100 uM by qPCR analysis; assay type: functional, cell-based

Compound	IC50 (HeLa [1]; Homo sapiens, HeLa)	IC50 ([2]; Homo sapiens, HeLa)	IC50 (HeLa [1]; hela)	IC50 ([2]; hela)	inhibition (HeLa [3])	inhibition (HeLa [4])	inhibition (HeLa [5])
CC(C)CC(=O)O[C@@H]1CC[C@@]2(OC(=O)CC(C)C)CC1[C@@H](NCc1ccccc1)[C@@H]1O[C@@H]12	9.4 µM	24.7 µM	–	–	–	–	–
CC(C)CN[C@@H]1C2C[C@](OC(=O)Cc3ccccc3)(CC[C@H]2OC(=O)CC(C)C)[C@H]2O[C@@H]12 (stereo in doubt; 16f) [listing 1 of 2 here]	–	–	76.1 µM	19 µM	–	–	–
CC(C)CN[C@@H]1C2C[C@](OC(=O)CC(C)C)(CC[C@H]2OC(=O)Cc2ccccc2)[C@H]2O[C@@H]12	89.1 µM	20.4 µM	–	–	Active	Active	–
CC(C)CN[C@@H]1C2C[C@](OC(=O)Cc3ccccc3)(CC[C@H]2OC(=O)CC(C)C)[C@H]2O[C@@H]12 (stereo in doubt)	–	–	32.3 µM	46.4 µM	–	–	–
CC(C)CN[C@@H]1C2C[C@](OC(=O)Cc3ccccc3)(CC[C@H]2OC(=O)CC(C)C)[C@H]2O[C@@H]12 (stereo in doubt; 16f) [listing 2 of 2 here]	–	–	–	–	Active	Active	Active
CC(C)CC(=O)O[C@]12CC[C@@H](OC(=O)Cc3ccccc3)C(C1)[C@@H](NCc1ccccc1)[C@@H]1O[C@@H]12 (mixture of isomers)	3.5 µM	17.2 µM	–	–	–	–	–
CC(C)CC(=O)O[C@@H]1CC[C@@]2(OC(=O)Cc3ccccc3)CC1[C@@H](NCc1ccccc1)[C@@H]1O[C@@H]12	39.5 µM	31 µM	–	–	–	–	–
CC(C)CN[C@@H]1C2C[C@](OC(=O)CC(C)C)(CC[C@H]2OC(=O)CC(C)C)[C@H]2O[C@@H]12	79.6 µM	21.7 µM	–	–	Active	Active	–
O=C(Cc1ccccc1)O[C@@H]1CC[C@@]2(OC(=O)Cc3ccccc3)CC1[C@@H](NCc1ccccc1)[C@@H]1O[C@@H]12 (mixture of isomers)	14.2 µM	19.5 µM	–	–	–	–	–
CC(C)CN[C@@H]1C2C[C@](OC(=O)Cc3ccccc3)(CC[C@H]2OC(=O)Cc2ccccc2)[C@H]2O[C@@H]12	> 100 µM	31.7 µM	–	–	–	–	–
